Source: patent US11407760B2, “Dioxinoquinoline compounds, preparation method and uses thereof” (BEIJING SCITECH-MQ PHARMACEUTICALS LIMITED, priority 2018, dated 2022)

Tested on: MHCC97H cells
Experiment: Inhibitory activity on the proliferation of MHCC97H cells (CCK-8)
Assay type: cell-based
Settings: Homo sapiens, MHCC97H cell proliferation, 72 hours of incubation
Experimental: Biological Example 3. Assay of the Inhibitory Activity of Small Molecular Compounds on the Proliferation of MHCC97H Cells
The specific steps of the assay are as follows:
1. Dilution of compounds: a total of 9 concentrations were obtained using a 3-fold gradient dilution from the highest concentration of 5000 nM (the maximum final concentration of the drug used in this assay was 5000 nM, and the minimum final concentration was 0.76 nM).
2. MHCC97H cells were collected, then transferred to a 15 mL centrifuge tube, and centrifuged at 1000 rpm for 5 minutes.
3. The supernatant was discarded, and the complete medium was added and pipetted evenly, 10 μL of cell suspension was taken out and mixed evenly with 10 μL of 0.4% trypan blue, the counting was carried out with a cell counter, and the number and survival rate of cells were recorded;
4. The cell suspension was seeded into a 96-well plate at 5000 cells/80 μL per well;
5. 20 μL of the corresponding 5× compound solution diluted with the medium mentioned above was added to each well and mixed evenly;
6. After 72 hours of incubation, 10 μL of CCK-8 reagent was added to each well and incubated for another 2 hours (the reaction time can be adjusted according to the color depth);
7. The OD value was read at 450 nm on a multi-function plate reader.
8. Data processing: cell survival rate (%)=[(As−Ab)/(Ac−Ab)]*100%
As: OD value of assay well (medium containing cells, CCK-8, compound),
Ac: OD value of control well (medium containing cells, CCK-8),
Ab: OD value of blank well (CCK-8, medium without cell and compound),
The values were then imported into Graphpad Prism5 software for curve fitting, and IC50 was calculated.
Table 3 lists the assay results of the inhibitory activity of some compounds disclosed herein on the proliferation of the MHCC97H cell line.

SMILES	IC50
COc1cc2nccc(Oc3ccc(NC(=O)C4(C(=O)Nc5ccc(F)cc5)CC4)cc3)c2c2c1OCCO2 [Example 1, N-(4-fluorophenyl)-N-(4-((5-methoxy-2,3-dihydro-[1,4]dioxino[2,3-f]quinolin-10-yl)oxy)phenyl)cyclopropan-1,1-dicarboxamide]	< 50 nM
COc1cc2nccc(Oc3ccc(NC(=O)C4(C(=O)Nc5ccc(F)cc5)CC4)cc3F)c2c2c1OCCO2 [Example 2, N-(3-fluoro-4-((5-methoxy-2,3-dihydro-[1,4]dioxino[2,3-f]quinolin-10-yl)oxy)phenyl)-N-(4-fluorophenyl)cyclopropan-1,1-dicarboxamide]	< 50 nM
COc1cc2nccc(Oc3ccc(NC(=O)C4(C(=O)Nc5ccc(F)cc5)CC4)c(F)c3)c2c2c1OCCO2 [Example 3, N-(2-fluoro-4-((5-methoxy-2,3-dihydro-[1,4]dioxino[2,3-f]quinolin-10-yl)oxy)phenyl)-N-(4-fluorophenyl)cyclopropan-1,1-dicarboxamide]	< 50 nM
O=C(Nc1ccc(F)cc1)C1(C(=O)Nc2ccc(Oc3ccnc4cc(OCCCN5CCOCC5)c5c(c34)OCCO5)cc2)CC1 [Example 4, N-(4-fluorophenyl)-N-(4-((5-(3-morpholinopropoxy)-2,3-dihydro-[1,4]dioxino[2,3-f]quinolin-10-yl)oxy)phenyl)cyclopropan-1,1-dicarboxamide]	< 50 nM
O=C(Nc1ccc(F)cc1)C1(C(=O)Nc2ccc(Oc3ccnc4cc(OCCCN5CCOCC5)c5c(c34)OCCO5)c(F)c2)CC1 [Example 5, N-(3-fluoro-4-((5-(3-morpholinopropoxy)-2,3-dihydro-[1,4]dioxino[2,3-f]quinolin-10-yl)oxy)phenyl)-N-(4-fluorophenyl)cyclopropan-1,1-dicarboxamide]	< 50 nM
O=C(Nc1ccc(F)cc1)C1(C(=O)Nc2ccc(Oc3ccnc4cc(OCCCN5CCOCC5)c5c(c34)OCCO5)cc2F)CC1 [Example 6, N-(2-fluoro-4-((5-(3-morpholinopropoxy)-2,3-dihydro-[1,4]dioxino[2,3-f]quinolin-10-yl)oxy)phenyl)-N-(4-fluorophenyl)cyclopropan-1,1-dicarboxamide]	< 50 nM
CCOc1cc2nccc(Oc3ccc(NC(=O)C4(C(=O)Nc5ccc(F)cc5)CC4)cc3F)c2c2c1OCCO2 [Example 7, N-(4-((5-ethoxy-2,3-dihydro-[1,4]dioxino[2,3-f]quinolin-10-yl)oxy)-3-fluorophenyl)-N-(4-fluorophenyl)cyclopropan-1,1-dicarboxamide]	< 50 nM
CN(C)CCCOc1cc2nccc(Oc3ccc(NC(=O)C4(C(=O)Nc5ccc(F)cc5)CC4)cc3F)c2c2c1OCCO2 [Example 8, N-(4-((5-(3-(dimethylamino)propoxy)-2,3-dihydro-[1,4]dioxino[2,3-f]quinolin-10-yl)oxy)-3-fluorophenyl)-N-(4-fluorophenyl)cyclopropan-1,1-dicarboxamide]	< 50 nM
O=C(Nc1ccc(F)cc1)C1(C(=O)Nc2ccc(Oc3ccnc4cc(OCCCN5CCCCC5)c5c(c34)OCCO5)c(F)c2)CC1 [Example 9, N-(4-((5-(3-(piperidin-1-yl)propoxy)-2,3-dihydro-[1,4]dioxino[2,3-f]quinolin-10-yl)oxy)-3-fluorophenyl)-N-(4-fluorophenyl)cyclopropan-1,1-dicarboxamide]	< 50 nM
COCCOc1cc2nccc(Oc3ccc(NC(=O)C4(C(=O)Nc5ccc(F)cc5)CC4)cc3F)c2c2c1OCCO2 [Example 10, N-(3-fluoro-4-((5-(2-methoxyethoxy)-2,3-dihydro-[1,4]dioxino[2,3-f]quinolin-10-yl)oxy)phenyl)-N-(4-fluorophenyl)cyclopropan-1,1-dicarboxamide]	< 50 nM
O=C(Nc1ccc(F)cc1)C1(C(=O)Nc2ccc(Oc3ccnc4cc(OCCCO)c5c(c34)OCCO5)c(F)c2)CC1 [Example 13, N-(3-fluoro-4-((5-(3-hydroxypropoxy)-2,3-dihydro-[1,4]dioxino[2,3-f]quinolin-10-yl)oxy)phenyl)-N-(4-fluorophenyl)cyclopropan-1,1-dicarboxamide]	< 50 nM
COCCCOc1cc2nccc(Oc3ccc(NC(=O)C4(C(=O)Nc5ccc(F)cc5)CC4)cc3F)c2c2c1OCCO2 [Example 14, N-(3-fluoro-4-((5-(3-methoxypropoxy)-2,3-dihydro-[1,4]dioxino[2,3-f]quinolin-10-yl)oxy)phenyl)-N-(4-fluorophenyl)cyclopropan-1,1-dicarboxamide]	< 50 nM
COCCN(C)CCCOc1cc2nccc(Oc3ccc(NC(=O)C4(C(=O)Nc5ccc(F)cc5)CC4)cc3F)c2c2c1OCCO2 [Example 15, N-(3-fluoro-4-((5-(3-((2-methoxyethyl)(methyl)amino)propoxy)-2,3-dihydro-[1,4]dioxino [2,3-f]quinolin-10-yl)oxy)phenyl)-N-(4-fluorophenyl)cyclopropan-1,1-dicarboxamide]	< 50 nM
O=C(Nc1ccc(F)cc1)C1(C(=O)Nc2ccc(Oc3ccnc4cc(OC5CCOC5)c5c(c34)OCCO5)c(F)c2)CC1 (stereo not shown) [Example 17, N-(3-fluoro-4-((5-((tetrahydrofuran-3-yl)oxy)-2,3-dihydro-[1,4]dioxino[2,3-f]quinolin-10-yl)oxy)phenyl)-N-(4-fluorophenyl)cyclopropan-1,1-dicarboxamide]	< 50 nM
CN1CCN(CCCOc2cc3nccc(Oc4ccc(NC(=O)C5(C(=O)Nc6ccc(F)cc6)CC5)cc4F)c3c3c2OCCO3)CC1 [Example 21, N-(4-((5-(3-(4-methylpiperazin-1-yl)propoxy)-2,3-dihydro-[1,4]dioxino[2,3-f]quinolin-10-yl)oxy)-3-fluorophenyl)-N-(4-fluorophenyl)cyclopropan-1,1-dicarboxamide]	< 50 nM
CC1(O)CCN(CCCOc2cc3nccc(Oc4ccc(NC(=O)C5(C(=O)Nc6ccc(F)cc6)CC5)cc4F)c3c3c2OCCO3)CC1 [Example 22, N-(3-fluoro-4-((5-(3-(4-hydroxy-4-methylpiperidin-1-yl)propoxy)-2,3-dihydro-[1,4]dioxino[2,3-f]quinolin-10-yl)oxy)phenyl)-N-(4-fluorophenyl)cyclopropan-1,1-dicarboxamide]	< 50 nM
CN(CCCOc1cc2nccc(Oc3ccc(NC(=O)C4(C(=O)Nc5ccc(F)cc5)CC4)cc3F)c2c2c1OCCO2)C1CCC1 [Example 23, N-(4-((5-(3-(cyclobutyl(methyl)amino)propoxy)-2,3-dihydro-[1,4]dioxino[2,3-f]quinolin-10-yl)oxy)-3-fluorophenyl)-N-(4-fluorophenyl)cyclopropan-1,1-dicarboxamide]	< 50 nM
O=C(Nc1ccc(F)cc1)C1(C(=O)Nc2ccc(Oc3ccnc4cc(OCCCN5CCS(=O)(=O)CC5)c5c(c34)OCCO5)c(F)c2)CC1 [Example 24, N-(4-((5-(3-(1,1-dioxothiomorpholin-4-yl)propoxy)-2,3-dihydro-[1,4]dioxino[2,3-f]quinolin-10-yl)oxy)-3-fluorophenyl)-N-(4-fluorophenyl)cyclopropan-1,1-dicarboxamide]	< 50 nM
O=C(Nc1ccc(F)cc1)C1(C(=O)Nc2ccc(Oc3ccnc4cc(OCCCN5CCCC5)c5c(c34)OCCO5)c(F)c2)CC1 [Example 25, N-(3-fluoro-4-((5-(3-(pyrrolidin-1-yl)propoxy)-2,3-dihydro-[1,4]dioxino[2,3-f]quinolin-10-yl)oxy)phenyl)-N-(4-fluorophenyl)cyclopropan-1,1-dicarboxamide]	< 50 nM
